Results taken from US12281139B2, “Mogrosides, methods of obtaining the same, and uses” (The Coca-Cola Company, priority 2018, dated 2025).

Key:
Format in all cases: in vivo
[1] = Sensory evaluation of CC-00401 and CC-00403 vs 7% Sucrose (trained sensory panel taste test, mock beverage samples at 4° C.); parameters: Sweetness In Mouth / Sweetness Overall Max / Bitterness In Mouth / Bitterness Overall Max: scale not given here; conditions: mean ± standard deviation, test sweeteners 400 ppm in water, reference 7% sucrose
Procedure: (§1) The following mock beverage samples were prepared:
(§2) A trained sensory panel conducted the taste test. Samples were served at approximately 4° C. Panelists were instructed to take 1 sip of the sample, hold in mouth for 5 seconds, expectorate, and rate the given attributes. A 5 minute break was placed between each sample and panelists were instructed to cleanse their palates with at least 1 bite of unsalted cracker and 2 sips of filtered water. Samples were randomized within each session for each panelist.
(§3) The following attributes were evaluated: • Sweet taste intensity: maximum level of sweetness in mouth during 5 seconds • Bitter taste intensity: maximum level of bitterness in mouth during 5 seconds • Overall maximum sweet intensity: maximum sweet intensity experienced from the time the sip is taken up to 1 minute • Overall maximum bitter intensity: maximum sweet intensity experienced from the time the sip is taken up to 1 minute • Sweet linger intensity: sweet intensity 1 minute after tasting the sample • Bitter aftertaste intensity: bitter intensity 1 minute after tasting the sample
(§4) An ANOVA, with Sample as fixed effects and Panelist as random effects was used to determine significance between the samples for each attribute at the 90% and 95% Confidence Level, two-tailed. Fishers LSD was used to determine significant differences between mean scores.

[2] = Sensory evaluation of CC-00436 vs 5% Sucrose (trained sensory panel taste test, mock beverages at 4° C.); parameters: Sweetness In Mouth / Sweetness Overall Max / Bitterness In Mouth / Bitterness Overall Max: scale not given here; conditions: mean ± standard deviation, CC-00436 400 ppm in water, reference 5% sucrose
Procedure: The following mock beverages were prepared: A trained sensory panel conducted the taste test. Samples were served at approximately 4° C. Panelists were instructed to take 1 sip of the sample, hold in mouth for 5 seconds, expectorate, and rate the given attributes. A 5 minute break was placed between each sample and panelists were instructed to cleanse their palates with at least 1 bite of unsalted cracker and 2 sips of filtered water. Samples were randomized within each session for each panelist. The following attributes were evaluated: • Sweet taste intensity: maximum level of sweetness in mouth during 5 seconds • Bitter taste intensity: maximum level of bitterness in mouth during 5 seconds • Overall maximum sweet intensity: maximum sweet intensity experienced from the time the sip is taken up to 1 minute • Overall maximum bitter intensity: maximum sweet intensity experienced from the time the sip is taken up to 1 minute • Sweet linger intensity: sweet intensity 1 minute after tasting the sample • Bitter aftertaste intensity: bitter intensity 1 minute after tasting the sample

[3] = Sensory evaluation of CC-00367 and CC-00371 vs Reb M 95% (trained sensory panel taste test, mock beverage samples, 400 ppm in water at 4° C.); conditions: mean panel score; for Bitter Aftertaste Intensity: bitter intensity 1 minute after tasting; for Overall Max Sweetness: from the time the sip is taken up to 1 minute; for Bitter Intensity In Mouth: maximum level of bitterness in mouth during 5 seconds; for Sweet Intensity In Mouth: maximum level of sweetness in mouth during 5 seconds; for Sweet Linger Intensity: sweet intensity 1 minute after tasting
Procedure: FIG. 1: Taste attribute comparison of CC-00371 and CC-00367 compared to Reb M 95% (all at 400 ppm) in water at 4° C.
as §1, §2, §3, §4
The results are shown in Table 75 and depicted in FIG. 1: […]

[4] = as above; conditions: mean panel score, from the time the sip is taken up to 1 minute

Q: For `OC[C@H]1O[C@@](CO)(O[C@H]2O[C@H](CO)[C@@H](O)[C@H](O)[C@H]2O)[C@@H](O)[C@@H]1O` [Sucrose, sucrose, reference compound], which “Bitterness In Mouth” value [1] is on record?
A: The value was 2.3 ± 2.3.

Q: What about the “Bitterness Linger (~60 sec)” value [1] of the same compound?
A: Its value is 0.8 ± 1.1.

Q: What about the “Bitterness Overall Max” value [1] of the same compound?
A: Its value is 2.8 ± 2.1.

Q: What about the “Sweetness In Mouth” value [1] of the same compound?
A: Its value is 7.2 ± 0.9.

Q: What about the “Sweetness Linger (~60 sec)” value [1] of the same compound?
A: The value was 2.1 ± 1.8.

Q: And the “Sweetness Overall Max” value [1]?
A: Its value is 7.4 ± 0.8.

Q: And the “Bitterness In Mouth” value [2]?
A: Its value is 0.15 ± 0.2.

Q: What about the “Bitterness Linger (~60 sec)” value [2] of the same compound?
A: The value was 0.1 ± 0.1.

Q: And the “Bitterness Overall Max” value [2]?
A: The value was 0.3 ± 0.3.

Q: What about the “Sweetness In Mouth” value [2] of the same compound?
A: The value was 4.3 ± 2.1.

Q: What about the “Sweetness Linger (~60 sec)” value [2] of the same compound?
A: Its value is 1.6 ± 1.8.

Q: And the “Sweetness Overall Max” value [2]?
A: The value was 4.5 ± 1.9.

Q: Which “Bitter Aftertaste Intensity” value [3] does the source give for `C=C1C[C@@]23CC[C@H]4[C@@](C)(CCC[C@@]4(C)C(=O)O[C@@H]4O[C@H](CO)[C@@H](O)[C@H](O[C@@H]5O[C@H](CO)[C@@H](O)[C@H](O)[C@H]5O)[C@H]4O[C@@H]4O[C@H](CO)[C@@H](O)[C@H](O)[C@H]4O)[C@@H]2CC[C@]1(O[C@@H]1O[C@H](CO)[C@@H](O)[C@H](O[C@@H]2O[C@H](CO)[C@@H](O)[C@H](O)[C@H]2O)[C@H]1O[C@@H]1O[C@H](CO)[C@@H](O)[C@H](O)[C@H]1O)C3` [Reb M 95%, rebaudioside M, reference compound] here?
A: The value was 1.7 B.

Q: What about the “Overall Max Sweetness” value [3] of the same compound?
A: The value was 9.2 A.

Q: And the “Bitter Intensity In Mouth” value [3]?
A: Its value is 1.0 B.

Q: What about the “Sweet Intensity In Mouth” value [3] of the same compound?
A: Its value is 8.0 A.

Q: What about the “Sweet Linger Intensity” value [3] of the same compound?
A: The value was 5.3 A.

Q: What about the “Overall Max Bitterness**” value [4] of the same compound?
A: The value was 2.0 B.

Q: For `C[C@H](CC[C@@H](O[C@@H]1OC(CO[C@@H]2OC(CO)[C@@H](O)[C@H](O)C2O)C(O)[C@@H](O)C1O[C@@H]1OC(CO)[C@@H](O)[C@H](O)C1O)C(C)(C)O)[C@H]1CC[C@@]2(C)C3CC=C4[C@@H](CC[C@H](O[C@@H]5OC(CO[C@@H]6OC(CO[C@H]7OC(CO)[C@@H](O)[C@H](O)C7O)[C@@H](O)[C@H](O)C6O)[C@@H](O)[C@H](O)C5O)C4(C)C)[C@]3(C)[C@H](O)C[C@]12C` (stereo partly drawn) [CC-00436, mogro-3-O-[α-D-glucopyranosyl-(1→6)-β-D-glucopyranosyl (1→6)-β-D-glucopyranoside]-24-O-{[β-D-glucopyranosyl-(1→2)]-[β-D-glucopyranosyl-(1→6)]-β-D-glucopyranoside}], which “Bitterness In Mouth” value [2] is on record?
A: Its value is 1.5 ± 1.9.

Q: And the “Bitterness Linger (~60 sec)” value [2]?
A: The value was 0.7 ± 0.8.

Q: What about the “Bitterness Overall Max” value [2] of the same compound?
A: The value was 2.1 ± 1.7.

Q: What about the “Sweetness In Mouth” value [2] of the same compound?
A: Its value is 5.2 ± 2.1.

Q: And the “Sweetness Linger (~60 sec)” value [2]?
A: The value was 2.9 ± 2.5.

Q: And the “Sweetness Overall Max” value [2]?
A: The value was 5.7 ± 2.1.

Q: With “mogro-3-O-[β-D-glucopyranosyl (1→6)-β-D-glucopyranoside]-24-O-{[β-D-glucopyranosyl-(1→2)]-[(β-D-glucopyranosyl-(1β3))-β-D-glucopyranosyl-(1β6)]-β-D-glucopyranoside} [CC-00371]” as the compound, how does the “Bitter Aftertaste Intensity” value [3] read?
A: Its value is 1.5 B.

Q: And the “Overall Max Sweetness” value [3]?
A: Its value is 9.3 A.

Q: What about the “Bitter Intensity In Mouth” value [3] of the same compound?
A: The value was 0.9 B.

Q: What about the “Sweet Intensity In Mouth” value [3] of the same compound?
A: The value was 7.5 A.

Q: And the “Sweet Linger Intensity” value [3]?
A: The value was 5.8 A.

Q: And the “Overall Max Bitterness**” value [4]?
A: The value was 2.1 B.

Q: Which results are given for `C[C@H](CC[C@@H](O[C@@H]1OC(CO[C@@H]2OC(CO)[C@@H](O)[C@H](O)C2O)C(O)[C@@H](O)C1O[C@@H]1OC(CO)[C@@H](O[C@@H]2OC(CO)[C@@H](O)[C@H](O)C2O)[C@H](O)C1O)C(C)(C)O)[C@H]1CC[C@@]2(C)C3CC=C4[C@@H](CC[C@H](O[C@@H]5OC(CO[C@@H]6OC(CO)[C@@H](O)[C@H](O)C6O)[C@@H](O)[C@H](O)C5O)C4(C)C)[C@]3(C)[C@H](O)C[C@]12C` (stereo partly drawn) [CC-00367, mogro-3-O-[β-D-glucopyranosyl (1→6)-β-D-glucopyranoside]-24-O-{[(β-D-glucopyranosyl-(1→4))-β-D-glucopyranosyl-(1→2)]-[β-D-glucopyranosyl-(1→6)]-β-D-glucopyranoside}]?
A: Bitter Aftertaste Intensity [3]: 1.4 B; Overall Max Sweetness [3]: 4.9 B; Bitter Intensity In Mouth [3]: 1.3 B; Sweet Intensity In Mouth [3]: 3.8 B; Sweet Linger Intensity [3]: 2.6 B; Overall Max Bitterness** [4]: 2.2 B

Q: With `C[C@H](CC[C@@H](O[C@@H]1O[C@H](CO[C@@H]2O[C@H](CO[C@@H]3O[C@H](CO)[C@@H](O)[C@H](O)[C@H]3O)[C@@H](O)[C@H](O)[C@H]2O)[C@@H](O)[C@H](O)[C@H]1O[C@@H]1O[C@H](CO)[C@@H](O)[C@H](O)[C@H]1O)C(C)(C)O)[C@H]1CC[C@@]2(C)[C@@H]3CC=C4[C@@H](CC[C@H](O[C@@H]5O[C@H](CO[C@@H]6O[C@H](CO)[C@@H](O)[C@H](O)[C@H]6O)[C@@H](O)[C@H](O)[C@H]5O)C4(C)C)[C@]3(C)[C@H](O)C[C@]12C` [CC-00403] as the compound, how does the “Bitterness In Mouth” value [1] read?
A: The value was 2.6 ± 3.0.

Q: And the “Bitterness Linger (~60 sec)” value [1]?
A: The value was 2.2 ± 3.4.

Q: What about the “Bitterness Overall Max” value [1] of the same compound?
A: The value was 5.0 ± 3.4.

Q: What about the “Sweetness In Mouth” value [1] of the same compound?
A: The value was 6.3 ± 1.4.

Q: And the “Sweetness Linger (~60 sec)” value [1]?
A: The value was 3.1 ± 2.5.

Q: And the “Sweetness Overall Max” value [1]?
A: Its value is 7.0 ± 1.5.

Q: What does the source list for `C[C@H](CC[C@@H](O[C@@H]1O[C@H](CO[C@@H]2O[C@H](CO)[C@@H](O)[C@H](O)[C@H]2O)[C@@H](O)[C@H](O)[C@H]1O[C@@H]1O[C@H](CO)[C@@H](O)[C@H](O)[C@H]1O)C(C)(C)O)[C@H]1CC[C@@]2(C)[C@@H]3CC=C4[C@@H](CC[C@H](O[C@@H]5O[C@H](CO[C@@H]6O[C@H](CO)[C@@H](O)[C@H](O)[C@H]6O)[C@@H](O)[C@H](O)[C@H]5O)C4(C)C)[C@]3(C)[C@H](O)C[C@]12C` [Mog V]?
A: Bitter Aftertaste Intensity [3]: 0.4; Overall Max Sweetness [3]: 8.5; Bitter Intensity In Mouth [3]: 0.5; Sweet Intensity In Mouth [3]: 7.0; Sweet Linger Intensity [3]: 3.5; Overall Max Bitterness** [4]: 1.1
